Results as given in ChEMBL document CHEMBL1144019 (Bioorg Med Chem, 2008).
In brackets after ≈: the same amount, converted by molar mass.

Tests used:
Format in all cases: functional
Pseudomonas aeruginosa [1] = assay: Antibacterial activity against imipenem-resistant Pseudomonas aeruginosa SR-6554 by standard serial agar dilution method
Staphylococcus aureus = assay: Antibacterial activity against Staphylococcus aureus Smith by standard serial agar dilution method
Escherichia coli [2] = assay: Antibacterial activity against Escherichia coli SR-21003 by standard serial agar dilution method
Pseudomonas aeruginosa [3] = assay: Antibacterial activity against Pseudomonas aeruginosa SR24 by standard serial agar dilution method
Haemophilus influenzae [4] = assay: Antibacterial activity against Haemophilus influenzae ATCC 49766 by standard serial agar dilution method
Pseudomonas aeruginosa [5] = assay: Antibacterial activity against AmpC hyperproducing Pseudomonas aeruginosa SR24-12 by standard serial agar dilution method
Haemophilus influenzae [6] = assay: Antibacterial activity against beta-lactamase negative ampicillin-resistant Haemophilus influenzae SR-11435 by standard serial agar dilution method
Enterobacter cloacae [7] = assay: Antibacterial activity against Enterobacter cloacae ATCC 13047 by standard serial agar dilution method
Pseudomonas aeruginosa [8] = assay: Antibacterial activity against Pseudomonas aeruginosa SR-5393 by standard serial agar dilution method
Streptococcus pneumoniae = assay: Antibacterial activity against penicillin-resistant Streptococcus pneumoniae SR-16675 by standard serial agar dilution method
Moraxella catarrhalis = assay: Antibacterial activity against Moraxella catarrhalis ATCC 43617 by standard serial agar dilution method
Escherichia coli [9] = assay: Antibacterial activity against Toho 2 producing Escherichia coli by standard serial agar dilution method
Enterobacter cloacae [10] = assay: Antibacterial activity against AmpC producing Enterobacter cloacae SR-4321 by standard serial agar dilution method

| Structure (SMILES) | MIC (Pseudomonas aeruginosa [1]) [µg/mL] | MIC (Staphylococcus aureus) [µg/mL] | MIC (Escherichia coli [2]) [µg/mL] | MIC (Pseudomonas aeruginosa [3]) [µg/mL] | MIC (Haemophilus influenzae [4]) [µg/mL] | MIC (Pseudomonas aeruginosa [5]) [µg/mL] | MIC (Haemophilus influenzae [6]) [µg/mL] | MIC (Enterobacter cloacae [7]) [µg/mL] | MIC (Pseudomonas aeruginosa [8]) [µg/mL] | MIC (Streptococcus pneumoniae) [µg/mL] | MIC (Moraxella catarrhalis) [µg/mL] | MIC (Escherichia coli [9]) [µg/mL] | MIC (Enterobacter cloacae [10]) [µg/mL] |
| --- | --- | --- | --- | --- | --- | --- | --- | --- | --- | --- | --- | --- | --- |
| CC(=O)NCCn1ccc2c1ccc[n+]2CC1=C(C(=O)[O-])N2C(=O)[C@@H](NC(=O)/C(=N\O[C@@H](C)C(=O)O)c3nc(N)sc3Cl)[C@H]2SC1 | 16 (≈ 23.1 µM) | 4 (≈ 5.79 µM) | 0.25 (≈ 0.362 µM) | 2 (≈ 2.89 µM) | 0.032 (≈ 0.0463 µM) | 8 (≈ 11.6 µM) | 0.125 (≈ 0.181 µM) | 0.5 (≈ 0.723 µM) | 4 (≈ 5.79 µM) | 4 (≈ 5.79 µM) | 0.032 (≈ 0.0463 µM) | 2 (≈ 2.89 µM) | 4 (≈ 5.79 µM) |
| C[C@H](O/N=C(\C(=O)N[C@@H]1C(=O)N2C(C(=O)[O-])=C(C[n+]3cccc4c3ccn4CCO)CS[C@H]12)c1nc(N)sc1Cl)C(=O)O | 16 (≈ 24.6 µM) | 2 (≈ 3.08 µM) | 0.25 (≈ 0.385 µM) | 1 (≈ 1.54 µM) | 0.032 (≈ 0.0492 µM) | 8 (≈ 12.3 µM) | 0.063 (≈ 0.0969 µM) | 0.5 (≈ 0.769 µM) | 4 (≈ 6.15 µM) | 4 (≈ 6.15 µM) | 0.016 (≈ 0.0246 µM) | 2 (≈ 3.08 µM) | 4 (≈ 6.15 µM) |
| CNCCCn1c(N)cc2c1ccc[n+]2CC1=C(C(=O)[O-])N2C(=O)[C@@H](NC(=O)/C(=N\O[C@@H](C)C(=O)O)c3nc(N)sc3Cl)[C@H]2SC1 | 16 (≈ 23.1 µM) | 1 (≈ 1.44 µM) | 0.25 (≈ 0.361 µM) | 0.5 (≈ 0.722 µM) | 0.016 (≈ 0.0231 µM) | 2 (≈ 2.89 µM) | 0.063 (≈ 0.091 µM) | 0.5 (≈ 0.722 µM) | 2 (≈ 2.89 µM) | 4 (≈ 5.78 µM) | 0.016 (≈ 0.0231 µM) | 2 (≈ 2.89 µM) | 2 (≈ 2.89 µM) |
| C[C@H](O/N=C(\C(=O)N[C@@H]1C(=O)N2C(C(=O)[O-])=C(C[n+]3cccc4c3ccn4CC(=O)O)CS[C@H]12)c1nc(N)sc1Cl)C(=O)O | 32 (≈ 48.2 µM) | 8 (≈ 12 µM) | 0.5 (≈ 0.753 µM) | 2 (≈ 3.01 µM) | 0.016 (≈ 0.0241 µM) | 32 (≈ 48.2 µM) | 0.063 (≈ 0.0949 µM) | 1 (≈ 1.51 µM) | 4 (≈ 6.02 µM) | 4 (≈ 6.02 µM) | 0.032 (≈ 0.0482 µM) | 4 (≈ 6.02 µM) | 16 (≈ 24.1 µM) |
| C[C@H](O/N=C(\C(=O)N[C@@H]1C(=O)N2C(C(=O)[O-])=C(C[n+]3cccc4c3ccn4CCOC(N)=O)CS[C@H]12)c1nc(N)sc1Cl)C(=O)O | 8 (≈ 11.5 µM) | 2 (≈ 2.89 µM) | 0.25 (≈ 0.361 µM) | 0.5 (≈ 0.721 µM) | 0.032 (≈ 0.0462 µM) | 4 (≈ 5.77 µM) | 0.063 (≈ 0.0909 µM) | 0.25 (≈ 0.361 µM) | 2 (≈ 2.89 µM) | 2 (≈ 2.89 µM) | 0.032 (≈ 0.0462 µM) | 2 (≈ 2.89 µM) | 2 (≈ 2.89 µM) |
| C[C@H](O/N=C(\C(=O)N[C@@H]1C(=O)N2C(C(=O)[O-])=C(C[n+]3cccc4c3ccn4CC(N)=O)CS[C@H]12)c1nc(N)sc1Cl)C(=O)O | 16 (≈ 24.1 µM) | 2 (≈ 3.02 µM) | 0.25 (≈ 0.377 µM) | 1 (≈ 1.51 µM) | 0.032 (≈ 0.0483 µM) | 4 (≈ 6.03 µM) | 0.063 (≈ 0.095 µM) | 0.5 (≈ 0.754 µM) | 4 (≈ 6.03 µM) | 2 (≈ 3.02 µM) | 0.016 (≈ 0.0241 µM) | 2 (≈ 3.02 µM) | 4 (≈ 6.03 µM) |
| COC(=O)NCCn1ccc2c1ccc[n+]2CC1=C(C(=O)[O-])N2C(=O)[C@@H](NC(=O)/C(=N\O[C@@H](C)C(=O)O)c3nc(N)sc3Cl)[C@H]2SC1 | 16 (≈ 22.6 µM) | 4 (≈ 5.66 µM) | 0.5 (≈ 0.707 µM) | 2 (≈ 2.83 µM) | 0.032 (≈ 0.0453 µM) | 8 (≈ 11.3 µM) | 0.063 (≈ 0.0891 µM) | 1 (≈ 1.41 µM) | 8 (≈ 11.3 µM) | 4 (≈ 5.66 µM) | 0.032 (≈ 0.0453 µM) | 4 (≈ 5.66 µM) | 4 (≈ 5.66 µM) |
| CNCCCc1cc[n+](CC2=C(C(=O)[O-])N3C(=O)[C@@H](NC(=O)/C(=N\O[C@@H](C)C(=O)O)c4nc(N)sc4Cl)[C@H]3SC2)cc1 | 16 (≈ 25.1 µM) | 8 (≈ 12.5 µM) | 1 (≈ 1.57 µM) | 1 (≈ 1.57 µM) | 0.125 (≈ 0.196 µM) | 8 (≈ 12.5 µM) | 0.25 (≈ 0.392 µM) | 1 (≈ 1.57 µM) | 4 (≈ 6.27 µM) | 4 (≈ 6.27 µM) | 0.032 (≈ 0.0501 µM) | 4 (≈ 6.27 µM) | 8 (≈ 12.5 µM) |
| C[C@H](O/N=C(\C(=O)N[C@@H]1C(=O)N2C(C(=O)[O-])=C(C[n+]3cccc4c3ccn4CCNC(N)=O)CS[C@H]12)c1nc(N)sc1Cl)C(=O)O | 16 (≈ 23.1 µM) | 4 (≈ 5.78 µM) | 0.25 (≈ 0.361 µM) | 1 (≈ 1.44 µM) | 0.032 (≈ 0.0462 µM) | 8 (≈ 11.6 µM) | 0.063 (≈ 0.091 µM) | 0.5 (≈ 0.722 µM) | 4 (≈ 5.78 µM) | 4 (≈ 5.78 µM) | 0.032 (≈ 0.0462 µM) | 2 (≈ 2.89 µM) | 4 (≈ 5.78 µM) |
| CNCCn1ccc2c[n+](CC3=C(C(=O)[O-])N4C(=O)[C@@H](NC(=O)/C(=N\O[C@@H](C)C(=O)O)c5nc(N)sc5Cl)[C@H]4SC3)ccc21 | 8 (≈ 12.1 µM) | 4 (≈ 6.03 µM) | 0.25 (≈ 0.377 µM) | 1 (≈ 1.51 µM) | 0.032 (≈ 0.0483 µM) | 4 (≈ 6.03 µM) | 0.125 (≈ 0.188 µM) | 0.5 (≈ 0.754 µM) | 2 (≈ 3.02 µM) | 4 (≈ 6.03 µM) | 0.032 (≈ 0.0483 µM) | 2 (≈ 3.02 µM) | 8 (≈ 12.1 µM) |
